{
  "source": "patent US6784153B1",
  "about": "“Methods of homing molecules to lung using membrane dipeptidase” (The Burnham Institute, priority 1998, dated 2004)",
  "key": {"lung": {"test_system": "lung", "test": "in vivo homing of phage displaying peptides to lung", "parameters": "species or system mice", "settings": "for homing of lung homing phage to control kidney or brain: control organs", "description": "For lung and pancreas, a mixture of phage libraries containing 10^10 TU was diluted in 200 μl DMEM and injected into the tail vein of anesthetized BALB/c mice (2 month old; Harlan Sprague Dawley; San Diego Calif.); AVERTIN (0.017 ml/g) was used as anesthetic (Pasqualini and Ruoslahti, supra, 1996). After 1-4 minutes, mice were snap frozen in liquid nitrogen or, after about 5 minutes of phage circulation, the mice were perfused through the heart with 5-10 ml of DMEM (SIGMA; St. Louis Mo.). To recover the phage, the organs from the perfused mice or partially thawed organs from snap frozen mice were collected and weighed, then were homogenized in 1 ml DMEM-PI (DMEM containing protease inhibitors (PI); phenylmethyl sulfonyl fluoride (PMSF; 1 mM), aprotinin (20 μg/ml), leupeptin (1 μg/ml)).\nOrgan samples were washed 3 times with ice cold DMEM-PI containing 1% bovine serum albumin (BSA), then directly incubated with 1 ml K91-kan bacteria for 1 hr. Ten ml NZY medium containing 0.2 μg/ml tetracycline (NZY/tet) was added to the bacterial culture, the mixture was incubated in a 37° C. shaker for 1 hr, then 200 μl aliquots were plated in agar plates containing 40 μg/ml tetracycline (tet/agar).\nApproximately 250 to 300 individual bacterial colonies containing phage recovered from the various organs or tissues were grown for 16 hr in 5 ml NZY/tet. In some experiments, approximately 1000 individual bacteria containing phage were picked and the phage were amplified in 2 ml of NZY/tet or the entire plate containing phage was scraped, pooled and grown in bulk and processed for injection. Where phage were cultured separately, the cultures were pooled and the phage were injected into mice or rats as described above for a second round of in vivo panning. In some experiments, a third or fourth round of panning was performed. Phage DNA was purified from individual bacterial colonies obtained and the DNA sequences encoding the peptides expressed by selected phage were determined (see Koivunen et al., supra, 1994b).\nAfter two or three rounds of in vivo panning of mice injected with a cyclic CX3CX3CX3C (SEQ ID NO: 25) or a cyclic CX6C (SEQ ID NO: 26) phage display library, four peptides that homed to lung were identified.\nTo determine the specificity of lung homing of the individual peptides identified, phage displaying the peptides were amplified individually, diluted to the same input titer and administered to mice. Following administration, control kidney and brain organ was removed and the number of TU of phage in lung, kidney and brain was determined. The results shown in FIG. 2 reveal that 10× and 35× more phage having the peptide sequence CGFECVRQCPERC (SEQ ID NO: 1; GFE-1) bound to lung than to kidney and brain, respectively. […] The lung homing peptides CGFECVRQCPERC (SEQ ID NO: 1; GFE-1), CGFELETC (SEQ ID NO: 2; GFE-2), CTLRDRNC (SEQ ID NO: 15) and CIGEVEVC (SEQ ID NO: 16) are enriched in lung at 35×, 9×, 6× and 5×, respectively, over unselected phage (see FIG. 2)."}, "mouse B16": {"test_system": "mouse B16", "test": "experimental lung metastasis of B16 melanoma cells", "assay_type": "in vivo, mice", "settings": "mouse B16 melanoma cell line", "description": "As disclosed herein, selective homing of GFE-1 (SEQ ID NO: 1) to lung endothelium in vivo is mediated by the cell surface protease, MDP."}, "[1]": {"test_system": "C8161 human melanoma cells", "settings": "cells and peptide mixture cultured overnight; data not shown"}, "kidney cells": {"test_system": "kidney cells", "test": "phage binding assay on kidney primary cells", "parameters": "species or system mice", "settings": "t test, p<0.02", "description": "Phage binding to primary cells was performed as follows. Briefly, Balb/c mice (Harlan Sprague Dawley) were anesthetized with 0.017 ml/g of Avertin as described in Gardner et al., Lab. Animal Sci. 45:199-204 (1995), which is incorporated herein by reference. Under deep anesthesia, mice were perfused through the heart with 10 ml Dulbecco's modified Eagle's medium (DMEM; Irvine Scientific; Santa Ana, Calif.). The lungs, kidneys and brain were then collected, minced, placed in 2 ml of DMEM containing 0.5% BSA (Intergen; Purchase, N.Y.) and 0.5 μg/ml collagenase V (SIGMA) and incubated at 37° C. for 25 minutes. Following collagenase treatment, the tissue was forced through a […] pore cell strainer (Becton Dickinson; Franklin Lake, N.J.). The filtered cells were washed once with 10 ml DMEM supplemented with 10% serum. […] To ensure an equal input of the different phage to be tested, phage were titered several times using K91Kan bacteria (Smith and Scott, supra, 1993).\nFor the binding reaction, 10^9 transducing units (TU) of phage were incubated with 5×10^6 cells in 1 ml DMEM supplemented with 10% serum. The binding was performed at 4° C. for 2 hours with gentle agitation. […] Plates were incubated at 37° C. overnight before the colonies were counted (transducing units, TU)."}, "[2]": {"settings": "individually amplified phage, FIG. 2"}},
  "note": "Entries after “also recorded” stand apart in the source; their conditions may differ.",
  "data": [
    {"sequence": "CGFECVRQCPERC [lung homing peptide]", "values": [
      {"measurement": "% OF MOTIF AMONG ALL CLONES", "setting": "lung; LUNG", "result": 40, "unit": "%"},
      {"measurement": "LUNG/BRAIN RATIO", "setting": "lung; LUNG section", "result": 60},
      {"measurement": "homing of lung homing phage to control kidney or brain", "setting": "lung", "result": "few phage detected in kidney or brain; also recorded: no selective homing to kidney or brain was detected"},
      {"measurement": "homing of lung homing phage to control kidney or brain", "setting": "lung; listed as GFE-1", "result": "no specific phage homing to kidney was detected"},
      {"measurement": "enriched in lung over unselected phage", "setting": "lung; [2]", "result": 35, "unit": "×"},
      {"measurement": "phage bound to lung than to brain", "setting": "lung; [2]", "result": 35, "unit": "×"},
      {"measurement": "phage bound to lung than to kidney", "setting": "lung; [2]", "result": 10, "unit": "×"},
      {"measurement": "experimental lung metastasis", "setting": "mouse B16", "result": "inhibit experimental lung metastasis"},
      {"measurement": "toxicity to the melanoma cells", "setting": "[1]", "result": "Neither the GFE-1 (SEQ ID NO: 1) or CARAC (SEQ ID NO: 443) peptides exhibited toxicity"},
      {"measurement": "phage binding to kidney cells relative to fd-tet", "setting": "kidney cells", "result": "higher than fd-tet binding"}
    ]}
  ]
}
